# PubChem BioAssay AID328 (DTP/NCI, 2004)
# Values joined by “and” are separate entries in the source; they are usually repeats but may differ in a detail not shown here. Equal values may be shown once. Toxic doses and inconclusive results are not listed.
# Test system: BDF1 mice, P388 leukemia ip, median survival T/C
# Assay: NCI In Vivo Anticancer Drug Screen. Data for tumor model P388 Leukemia (intraperitoneal) in B6D2F1 (BDF1) mice
# Conditions: endpoint: median survival time, higher = longer survival
# Summary of the method: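 Transplantable tumour in mice; compound vs vehicle dosing; survival scored; ratio of treated to control reported.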
# [1] = dose: 25.0 mg/kg/injection, schedule: Q04DX003 (ip), vehicle: saline
smiles,measurement,setting,value
O=C1c2ccccc2C(=O)N1CN1CCN(c2ccc(F)cc2)CC1,T/C,"dose: 50.0 mg/kg/injection, schedule: Q01DX005 (ip), vehicle: saline with Tween-80",103 % of control
same,T/C,"dose: 100.0 mg/kg/injection, schedule: Q01DX005 (ip), vehicle: saline with Tween-80",94 % of control
same,T/C,"dose: 200.0 mg/kg/injection, schedule: Q01DX005 (ip), vehicle: saline with Tween-80",103 % of control
C=C1C(=O)O[C@H]2C1[C@H](OC(=O)/C(C)=C\COC(C)=O)C[C@]1(CO1)[C@@H]1[C@H](O)[C@H]3O[C@@]3(C)[C@@H]12 (some centres not stated),T/C,"dose: 3.12 mg/kg/injection, schedule: Q01DX009 (ip), vehicle: other",103 % of control
same,T/C,"dose: 6.25 mg/kg/injection, schedule: Q01DX009 (ip), vehicle: other",96 % of control and 120 % of control
same,T/C,"dose: 12.5 mg/kg/injection, schedule: Q01DX009 (ip), vehicle: other",101 % of control
same,T/C,"dose: 50.0 mg/kg/injection, schedule: Q01DX009 (ip), vehicle: other",173 % of control
Oc1ccc(Cl)c2cccnc12,T/C,"dose: 12.5 mg/kg/injection, schedule: Q01DX010 (ip), vehicle: carboxymethylcellulose (CMC)",104 % of control
same,T/C,"dose: 25.0 mg/kg/injection, schedule: Q01DX010 (ip), vehicle: carboxymethylcellulose (CMC)",104 % of control
same,T/C,"dose: 50.0 mg/kg/injection, schedule: Q01DX010 (ip), vehicle: carboxymethylcellulose (CMC)",109 % of control
O=[N+]([O-])c1ccc(S(=O)(=O)Cc2ccccc2)c2nonc12,T/C,"dose: 25.0 mg/kg/injection, schedule: Q01DX009 (ip), vehicle: saline with Tween-80",112 % of control
CCCCCCC(=O)CCCCCCCCCCCCC(=O)OC,T/C,"dose: 1.56 mg/kg/injection, schedule: Q01DX009 (ip), vehicle: saline with Tween-80",90 % of control
same,T/C,"dose: 3.13 mg/kg/injection, schedule: Q01DX009 (ip), vehicle: saline with Tween-80",100 % of control
same,T/C,"dose: 6.25 mg/kg/injection, schedule: Q01DX009 (ip), vehicle: saline with Tween-80",95 % of control
FC(F)(F)c1nnn[n-]1.[Au+].c1ccc([PH+](c2ccccc2)c2ccccc2)cc1,T/C,"dose: 25.0 mg/kg/injection, schedule: Q01DX001 (ip), vehicle: saline with Tween-80",100 % of control
same,T/C,"dose: 50.0 mg/kg/injection, schedule: Q01DX001 (ip), vehicle: saline with Tween-80",102 % of control
CCOC(=O)C(OCc1ccccc1)(C(=O)OCC)C(C)C,T/C,[1],115 % of control
same,T/C,"dose: 50.0 mg/kg/injection, schedule: Q04DX003 (ip), vehicle: saline",100 % of control
same,T/C,"dose: 100.0 mg/kg/injection, schedule: Q04DX003 (ip), vehicle: saline",105 % of control
CCCCOCN(COCCCC)C(C)Cc1ccccc1 (configuration not stated),T/C,"dose: 50.0 mg/kg/injection, schedule: Q01DX009 (ip), vehicle: saline with Tween-80",122 % of control
CCOC(=N)c1cn(C2OC(CO)C(O)C2O)c2ncnc(N)c12 (configuration not stated),T/C,"dose: 0.12 mg/kg/injection, schedule: Q01DX009 (ip), vehicle: saline with Tween-80",168 % of control
same,T/C,"dose: 0.22 mg/kg/injection, schedule: Q01DX009 (ip), vehicle: saline",174 % of control
same,T/C,"dose: 0.25 mg/kg/injection, schedule: Q01DX009 (ip), vehicle: saline with Tween-80",195 % of control
same,T/C,"dose: 0.33 mg/kg/injection, schedule: Q01DX009 (ip), vehicle: saline",196 % of control
same,T/C,"dose: 0.5 mg/kg/injection, schedule: Q01DX009 (ip), vehicle: saline with Tween-80",163 % of control
same,T/C,"dose: 0.5 mg/kg/injection, schedule: Q01DX009 (ip), vehicle: saline",186 % of control
same,T/C,"dose: 0.5 mg/kg/injection, schedule: Q04DX003 (ip), vehicle: saline with Tween-80",150 % of control
same,T/C,"dose: 0.75 mg/kg/injection, schedule: Q01DX009 (ip), vehicle: saline",196 % of control
same,T/C,"dose: 0.8 mg/kg/injection, schedule: Q04DX003 (ip), vehicle: saline with Tween-80",190 % of control
same,T/C,"dose: 1.2 mg/kg/injection, schedule: Q04DX003 (ip), vehicle: saline with Tween-80",272 % of control
same,T/C,"dose: 1.8 mg/kg/injection, schedule: Q04DX003 (ip), vehicle: saline with Tween-80",190 % of control and 209 % of control
same,T/C,"dose: 2.6 mg/kg/injection, schedule: Q04DX003 (ip), vehicle: saline with Tween-80",200 % of control
same,T/C,"dose: 6.0 mg/kg/injection, schedule: Q04DX003 (ip), vehicle: saline with Tween-80",90 % of control
same,T/C,"dose: 5.3 micrograms/kg/injection, schedule: Q01DX009 (ip), vehicle: saline",106 % of control
same,T/C,"dose: 8.0 micrograms/kg/injection, schedule: Q01DX009 (ip), vehicle: saline",115 % of control
same,T/C,"dose: 15.0 micrograms/kg/injection, schedule: Q01DX009 (ip), vehicle: saline with Tween-80",120 % of control
same,T/C,"dose: 27.0 micrograms/kg/injection, schedule: Q01DX009 (ip), vehicle: saline",152 % of control
same,T/C,"dose: 40.0 micrograms/kg/injection, schedule: Q01DX009 (ip), vehicle: saline",159 % of control
same,T/C,"dose: 60.0 micrograms/kg/injection, schedule: Q01DX009 (ip), vehicle: saline",169 % of control
same,T/C,"dose: 66.0 micrograms/kg/injection, schedule: Q01DX009 (ip), vehicle: saline",155 % of control
same,T/C,"dose: 100.0 micrograms/kg/injection, schedule: Q01DX009 (ip), vehicle: saline",154 % of control
CC(C(N)C(=O)O)C(O)c1ccc(O)cn1 (configuration not stated),T/C,"dose: 45.0 mg/kg/injection, schedule: Q01DX009 (ip), vehicle: water",109 % of control
same,T/C,"dose: 90.0 mg/kg/injection, schedule: Q01DX009 (ip), vehicle: water",102 % of control
same,T/C,"dose: 180.0 mg/kg/injection, schedule: Q01DX009 (ip), vehicle: water",102 % of control
C=CC(COC(C)=O)N1CC1 (configuration not stated),T/C,"dose: 4.0 mg/kg/injection, schedule: Q01DX009 (ip), vehicle: saline",104 % of control
same,T/C,"dose: 6.0 mg/kg/injection, schedule: Q01DX009 (ip), vehicle: saline",115 % of control
same,T/C,"dose: 8.0 mg/kg/injection, schedule: Q01DX009 (ip), vehicle: saline",112 % of control
same,T/C,"dose: 12.0 mg/kg/injection, schedule: Q04DX003 (ip), vehicle: saline",110 % of control
same,T/C,"dose: 17.0 mg/kg/injection, schedule: Q01DX009 (ip), vehicle: saline",116 % of control
same,T/C,"dose: 25.0 mg/kg/injection, schedule: Q01DX009 (ip), vehicle: saline",150 % of control and 165 % of control
same,T/C,[1],120 % of control
same,T/C,"dose: 37.0 mg/kg/injection, schedule: Q01DX009 (ip), vehicle: saline",180 % of control
COC(=O)C(C)CN1CCCCC1 (configuration not stated),T/C,"dose: 50.0 mg/kg/injection, schedule: Q01DX009 (ip), vehicle: saline",105 % of control
same,T/C,"dose: 100.0 mg/kg/injection, schedule: Q01DX009 (ip), vehicle: saline",110 % of control
same,T/C,"dose: 200.0 mg/kg/injection, schedule: Q01DX009 (ip), vehicle: saline",110 % of control
CCC(C)NC(=S)NN (configuration not stated),T/C,"dose: 10.0 mg/kg/injection, schedule: Q01DX009 (ip), vehicle: saline with Tween-80",95 % of control
same,T/C,"dose: 20.0 mg/kg/injection, schedule: Q01DX009 (ip), vehicle: saline with Tween-80",100 % of control
same,T/C,"dose: 40.0 mg/kg/injection, schedule: Q01DX009 (ip), vehicle: saline with Tween-80",95 % of control
O=C1c2ccccc2C(=O)N1CC[P+](c1ccccc1)(c1ccccc1)c1ccccc1,T/C,"dose: 0.78 mg/kg/injection, schedule: Q01DX009 (ip), vehicle: water",103 % of control
same,T/C,"dose: 1.56 mg/kg/injection, schedule: Q04DX003 (ip), vehicle: water",112 % of control
same,T/C,"dose: 3.12 mg/kg/injection, schedule: Q04DX003 (ip), vehicle: water",94 % of control and 123 % of control
same,T/C,"dose: 3.13 mg/kg/injection, schedule: Q01DX009 (ip), vehicle: Klucel (hydroxypropylcellulose) (HPC)",165 % of control
same,T/C,"dose: 6.25 mg/kg/injection, schedule: Q01DX009 (ip), vehicle: Klucel (hydroxypropylcellulose) (HPC)",151 % of control and 153 % of control
same,T/C,"dose: 6.25 mg/kg/injection, schedule: Q01DX009 (ip), vehicle: water",174 % of control
same,T/C,"dose: 6.25 mg/kg/injection, schedule: Q04DX003 (ip), vehicle: water",108 % of control and 120 % of control
same,T/C,"dose: 12.5 mg/kg/injection, schedule: Q01DX009 (ip), vehicle: Klucel (hydroxypropylcellulose) (HPC)",157 % of control and 160 % of control
same,T/C,"dose: 12.5 mg/kg/injection, schedule: Q01DX009 (ip), vehicle: water",158 % of control
same,T/C,"dose: 12.5 mg/kg/injection, schedule: Q04DX003 (ip), vehicle: water",119 % of control and 120 % of control
same,T/C,"dose: 25.0 mg/kg/injection, schedule: Q01DX009 (ip), vehicle: Klucel (hydroxypropylcellulose) (HPC)",90 % of control
same,T/C,"dose: 50.0 mg/kg/injection, schedule: Q04DX003 (ip), vehicle: water",120 % of control
COC1=C(N)C(=O)c2nc(-c3nc(C=O)c(C)c(-c4ccc(OC)c(OC)c4O)c3N)ccc2C1=O,T/C,"dose: 0.8 mg/kg/injection, schedule: Q01DX009 (ip), vehicle: dioxane",104 % of control
same,T/C,"dose: 1.05 mg/kg/injection, schedule: Q01DX009 (ip), vehicle: dioxane",122 % of control
same,T/C,"dose: 1.55 mg/kg/injection, schedule: Q01DX009 (ip), vehicle: dioxane",99 % of control
same,T/C,"dose: 2.55 mg/kg/injection, schedule: Q01DX009 (ip), vehicle: dioxane",107 % of control
same,T/C,"dose: 3.05 mg/kg/injection, schedule: Q01DX009 (ip), vehicle: dioxane",104 % of control
same,T/C,"dose: 4.05 mg/kg/injection, schedule: Q01DX009 (ip), vehicle: dioxane",109 % of control
same,T/C,"dose: 5.05 mg/kg/injection, schedule: Q01DX009 (ip), vehicle: dioxane",118 % of control
